The results in this text go back to patent US20260306640A1, “TECHNOLOGIES TARGETING CELL STATES” (Auron Therapeutics, Inc., priority 2023, published 2026).

One data set concerns epithelial GSEA. Nature of the data set: Epithelial GSEA in NCI-H1048 tumors of treated mice. The settings on record: tumors treated as compared to vehicle; FIG. 1 (G). It counts as in vivo. The protocol: (§1) FIG. 1. Provided compounds can provide various activities including inhibiting tumor growth in vivo. (A): Provided compounds can inhibit tumor growth in vivo. Nude Balb/c mice were inoculated with NCI-H1048 cells in Matrigel. Tumors were allowed to grow up to about 200 mm^3 and mice were then randomized into two groups. Mice were dosed intraperitoneally (i.p.) once per week with vehicle or 30 mg/kg compound 22. Tumor size was measured every three to four days and mice were sacrificed once vehicle tumors reached 2000 mm^3. Error bar is SEM. Dosing started at day 17 post tumor inoculation. (B): Provided technologies can reduce KAT2A and KAT2B levels and histone acetylation levels. […] Vehicle is DMSO. […] Cell count data relative to DMSO control after 8 days of treatment with compound 22 are presented as examples to confirm inhibition. GI50=6 nM. (D): Provided technologies can inhibit tumor growth in vivo. Nude balb/c mice inoculated with H1048 tumors were dosed intraperitoneally once per week (qw i.p.) with vehicle (HbCD) or compound 22. Average tumor volumes+/−SEM from 6 mice are represented. […] See also (A). […] Certain body weights relative to starting weight are presented as examples to confirm tolerability and safety. (F): Provided technologies can reduce KAT2A and KAT2B levels and histone acetylation levels in tumor in vivo. […]

Data set [1] addresses T1, KAT2B (Homo sapiens, UniProt Q92831). Nature of the data set: Western blot of KAT2B level in NCI-H1048 cells, 24 h. It counts as cell-based. Also on record: degrader, Western blot. The settings on record: various concentrations, FIG. 1 (B). On the procedure: as §1
In the next data set the test system is MOLM-13 cells. Nature of the data set: Cell growth inhibition (cell count, 8 days), MOLM-13 cells. The data set is classed as cell-based. The settings on record: Homo sapiens, 192 h, cell count after 8 days relative to DMSO control, FIG. 2 (B). The protocol: (§2) FIG. 2. Provided compounds can provide various activities. (A): Provided technologies can reduce KAT2A and KAT2B levels and histone acetylation levels. […] Cell count data after 8 days of treatment with compound 22 relative to DMSO control are presented as examples to confirm inhibition. […] (C): Provided technologies can modulate cell states and induce differentiation. […] EC50=0.3 nM.

The next data set concerns the target KAT2A (Homo sapiens, UniProt Q92830). Put plainly: Western blot of KAT2A level in acute myeloid leukemia MOLM-13 cells, 48 h. It counts as cell-based. Also on record: degrader, Western blot. The settings on record: FIG. 2 (A). The protocol:
as §2

In data set [2] the target is T1, KAT2B. Put plainly: KAT2B reduction in LASCPC-01 cells. It counts as cell-based. Details: degrader, Western blot. On the procedure: MOLM-13 cells or NCI-H1048 cells were washed with PBS, then lysed with RIPA buffer containing 1×protease and phosphatase inhibitors (SantaCruz Biotechnologies Cat #sc-24948A). Protein was isolated by centrifugation at 12,000×g for 10 minutes at 4° C. and supernatant was collected. Protein was quantified via Bradford assay. Samples were diluted to 4 μg lysate in 16 μL RIPA buffer and then 4 μL of Jess Sample Buffer. Samples were heated at 95° C. for 5 minutes. Samples were loaded onto 12-230 kDa Jess™ Separation Module, 8×25 capillary cartridges (SM-W004, Biotechne). Antibodies loaded were: Primary antibody for KAT2A (GCN5L2 (C26A10) Rabbit mAb (3305, CST)) and for KAT2B (PCAF (C14G9)) Rabbit mAb (3378, CST) at 1:1000 and Anti-Rabbit Detection Module for Jess™ (Cat No #DM-001, Biotechne). Signal was detected by chemiluminescence.
In some embodiments, assessment was performed in LASCPC-01 cells, and reduction of KAT2A and KAT2B levels, including in some cases selectivity for one over the other, was confirmed. In some embodiments, DC50 and/or DC90 were assessed. In some embodiments, DC50 for various compounds was about or no more than about 1 nM. In some embodiments, DC90 for various compounds was about or no more than about 1 nM. In some embodiments, selectivity for the same polypeptide by a compound was observed across multiple types of cells (e.g., when assessed using DC50 and/or DC90). In some embodiments, certain compounds can provide improved properties and/or activities (e.g., potency). Data from certain assessments for certain compounds are presented below as examples (NT: not tested). It has been confirmed that various compounds described herein, including multiple compounds in Table 1, can be deemed to provide further improved properties and/or activities compared to the compound(s) in the table below for certain contexts, aspects, and/or uses.

The target in data set [3] is T1, KAT2B. Nature of the data set: Western blot of KAT2B level in neuroendocrine prostate cancer LASCPC-01 cells, 24 hours. The data set is classed as cell-based. Details: degrader, Western blot. The settings on record: FIG. 3 (A). The protocol: FIG. 3. Provided compounds can provide various activities. (A): Provided technologies can reduce KAT2A and KAT2B levels and histone acetylation levels. […] Cell viability (Cell Titer Glo) data relative to DMSO control after 7 days of treatment with compound 22 are presented as examples to confirm inhibition. GI50=5 nM. (C): Provided technologies can modulate cell states and induce differentiation. […] (D): Provided technologies can reduce KAT2A and KAT2B levels and histone acetylation levels including in neuroendocrine prostate cancer primary patient organoid. […] Concentrations are nM. […] Cell viability data relative to DMSO control after 21 days of treatment with compound 22 are presented as examples to confirm inhibition. GI50=3 nM. (F): Provided technologies can modulate cell states and induce differentiation.
(In western blotting, separated proteins are transferred to a membrane and probed.)

Another data set has as its system histone acetylation. Put plainly: Western blot of histone acetylation in NCI-H1048 cells, 24 h. It counts as cell-based. The settings on record: various concentrations, FIG. 1 (B). The protocol: as §1
A short description of data set [4]: Tolerability / body weight relative to starting weight in nude Balb/c mice bearing H1048 tumors. It counts as in vivo. Conditions: once per week i.p.; 30 mg/kg; FIG. 1 (D), (E). The protocol:
as §1

A word on the GI50: it is the concentration giving 50% growth inhibition. As a reminder, the DC50 is the concentration giving 50% degradation.

Structures are written as SMILES.

T1 sequence (Q92831 whole entry): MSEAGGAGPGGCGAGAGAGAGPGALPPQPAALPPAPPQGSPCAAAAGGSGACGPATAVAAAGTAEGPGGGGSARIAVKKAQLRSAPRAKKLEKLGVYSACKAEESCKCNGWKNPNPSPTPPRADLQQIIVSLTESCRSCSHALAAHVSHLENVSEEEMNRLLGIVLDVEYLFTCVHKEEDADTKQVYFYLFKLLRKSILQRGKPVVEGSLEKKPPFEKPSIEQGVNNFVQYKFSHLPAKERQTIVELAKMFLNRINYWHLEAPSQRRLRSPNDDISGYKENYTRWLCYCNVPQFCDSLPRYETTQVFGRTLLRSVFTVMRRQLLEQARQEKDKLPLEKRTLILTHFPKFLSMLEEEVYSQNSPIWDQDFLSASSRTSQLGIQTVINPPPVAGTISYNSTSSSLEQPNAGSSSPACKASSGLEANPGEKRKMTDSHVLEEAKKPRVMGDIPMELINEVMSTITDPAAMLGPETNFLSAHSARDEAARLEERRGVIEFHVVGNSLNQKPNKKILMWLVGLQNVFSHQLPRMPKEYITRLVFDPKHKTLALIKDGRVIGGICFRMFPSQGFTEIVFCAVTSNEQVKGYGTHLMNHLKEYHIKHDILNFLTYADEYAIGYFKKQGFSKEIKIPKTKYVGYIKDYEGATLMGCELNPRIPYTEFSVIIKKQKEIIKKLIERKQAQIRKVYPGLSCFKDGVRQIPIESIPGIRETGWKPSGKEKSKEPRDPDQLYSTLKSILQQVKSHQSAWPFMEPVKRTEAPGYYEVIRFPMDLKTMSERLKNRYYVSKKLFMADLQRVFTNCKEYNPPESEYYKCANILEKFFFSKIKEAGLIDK
Sequence of KAT2A (Q92830 whole entry): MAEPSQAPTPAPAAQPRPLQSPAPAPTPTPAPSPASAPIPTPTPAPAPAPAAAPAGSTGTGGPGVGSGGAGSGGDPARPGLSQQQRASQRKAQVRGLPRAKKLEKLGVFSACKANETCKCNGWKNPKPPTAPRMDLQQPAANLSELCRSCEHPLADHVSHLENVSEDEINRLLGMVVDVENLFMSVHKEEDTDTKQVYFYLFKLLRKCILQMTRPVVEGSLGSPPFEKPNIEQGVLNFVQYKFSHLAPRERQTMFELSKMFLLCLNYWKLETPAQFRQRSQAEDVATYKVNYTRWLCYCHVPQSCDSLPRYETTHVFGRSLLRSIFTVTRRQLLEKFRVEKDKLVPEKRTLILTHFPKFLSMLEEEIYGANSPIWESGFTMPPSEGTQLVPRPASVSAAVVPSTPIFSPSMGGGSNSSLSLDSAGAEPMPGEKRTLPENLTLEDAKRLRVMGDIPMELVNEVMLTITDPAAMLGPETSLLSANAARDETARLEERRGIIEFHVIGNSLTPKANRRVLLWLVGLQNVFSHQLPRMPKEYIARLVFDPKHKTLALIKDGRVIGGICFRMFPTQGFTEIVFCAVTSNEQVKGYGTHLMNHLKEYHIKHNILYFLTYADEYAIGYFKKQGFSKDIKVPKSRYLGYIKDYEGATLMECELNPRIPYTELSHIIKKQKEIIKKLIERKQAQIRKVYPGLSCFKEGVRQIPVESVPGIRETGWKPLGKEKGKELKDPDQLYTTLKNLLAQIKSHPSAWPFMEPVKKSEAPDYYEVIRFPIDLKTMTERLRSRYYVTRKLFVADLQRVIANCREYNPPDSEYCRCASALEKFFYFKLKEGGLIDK

Take `CN1C[C@H](Nc2cnn(C)c(=O)c2Br)C[C@H](c2ccc(C(=O)N3CCC(CN4CCN(c5ccc6c(c5)CN(C5CCC(=O)NC5=O)C6=O)CC4)CC3)cc2)C1` (stereo partly drawn) [Compound 22, 3-(5-(4-((1-(4-((3R,5R)-5-((5-bromo-1-methyl-6-oxo-1,6-dihydropyridazin-4-yl)amino)-1-methylpiperidin-3-yl)benzoyl)piperidin-4-yl)methyl)piperazin-1-yl)-1-oxoisoindolin-2-yl)piperidine-2,6-dione]: the “epithelial GSEA” value in the data set with epithelial GSEA is “significant upregulation”. In addition, the “reduction of KAT2B level” value on KAT2B [1] and at KAT2B [3] was “confirm such reduction” each time. Further, growth with MOLM-13 cells was halved (GI50) at 1.2 nM. In addition, on KAT2A, the “reduction of KAT2A level” value is “confirm such reduction”. Further, the DC50 at KAT2B [2] (LASCPC-01, KAT2B) worked out at 0.16 nM. Also, the EC90 on KAT2B [2] (LASCPC-01, KAT2B, read-out: DC90 (the source's name)) amounted to 0.42 nM. Moreover, the KAT2B levels result at KAT2B [2] (LASCPC-01 cells, FIG. 3) is “potently reduce KAT2A and KAT2B levels”. In addition, the “reduction of histone acetylation level” value in the data set on histone acetylation is listed as “confirm such reduction”. In data set [4], the “tolerability (body weights relative to starting weight)” value was “well tolerated”.
